Experiments:
[1] = system: Tyrosine-protein kinase ABL1 (Homo sapiens), P00519 [Q252H]; conditions: Compound concentration 1000.0 nM
[2] = system: Tyrosine-protein kinase ABL1 (Homo sapiens), P00519 [Q252H]; conditions: Compound concentration 1000.0 nM; remark: listed apart in the source
[3] = molecular target: RAC-beta serine/threonine-protein kinase (Homo sapiens) (UniProt P31751); conditions: Compound concentration 1000.0 nM
[4] = molecular target: Mitogen-activated protein kinase kinase kinase 5 (Homo sapiens) (UniProt Q99683); conditions: Compound concentration 1000.0 nM
Sequence of Mitogen-activated protein kinase kinase kinase 5 (Homo sapiens) (Q99683 whole entry): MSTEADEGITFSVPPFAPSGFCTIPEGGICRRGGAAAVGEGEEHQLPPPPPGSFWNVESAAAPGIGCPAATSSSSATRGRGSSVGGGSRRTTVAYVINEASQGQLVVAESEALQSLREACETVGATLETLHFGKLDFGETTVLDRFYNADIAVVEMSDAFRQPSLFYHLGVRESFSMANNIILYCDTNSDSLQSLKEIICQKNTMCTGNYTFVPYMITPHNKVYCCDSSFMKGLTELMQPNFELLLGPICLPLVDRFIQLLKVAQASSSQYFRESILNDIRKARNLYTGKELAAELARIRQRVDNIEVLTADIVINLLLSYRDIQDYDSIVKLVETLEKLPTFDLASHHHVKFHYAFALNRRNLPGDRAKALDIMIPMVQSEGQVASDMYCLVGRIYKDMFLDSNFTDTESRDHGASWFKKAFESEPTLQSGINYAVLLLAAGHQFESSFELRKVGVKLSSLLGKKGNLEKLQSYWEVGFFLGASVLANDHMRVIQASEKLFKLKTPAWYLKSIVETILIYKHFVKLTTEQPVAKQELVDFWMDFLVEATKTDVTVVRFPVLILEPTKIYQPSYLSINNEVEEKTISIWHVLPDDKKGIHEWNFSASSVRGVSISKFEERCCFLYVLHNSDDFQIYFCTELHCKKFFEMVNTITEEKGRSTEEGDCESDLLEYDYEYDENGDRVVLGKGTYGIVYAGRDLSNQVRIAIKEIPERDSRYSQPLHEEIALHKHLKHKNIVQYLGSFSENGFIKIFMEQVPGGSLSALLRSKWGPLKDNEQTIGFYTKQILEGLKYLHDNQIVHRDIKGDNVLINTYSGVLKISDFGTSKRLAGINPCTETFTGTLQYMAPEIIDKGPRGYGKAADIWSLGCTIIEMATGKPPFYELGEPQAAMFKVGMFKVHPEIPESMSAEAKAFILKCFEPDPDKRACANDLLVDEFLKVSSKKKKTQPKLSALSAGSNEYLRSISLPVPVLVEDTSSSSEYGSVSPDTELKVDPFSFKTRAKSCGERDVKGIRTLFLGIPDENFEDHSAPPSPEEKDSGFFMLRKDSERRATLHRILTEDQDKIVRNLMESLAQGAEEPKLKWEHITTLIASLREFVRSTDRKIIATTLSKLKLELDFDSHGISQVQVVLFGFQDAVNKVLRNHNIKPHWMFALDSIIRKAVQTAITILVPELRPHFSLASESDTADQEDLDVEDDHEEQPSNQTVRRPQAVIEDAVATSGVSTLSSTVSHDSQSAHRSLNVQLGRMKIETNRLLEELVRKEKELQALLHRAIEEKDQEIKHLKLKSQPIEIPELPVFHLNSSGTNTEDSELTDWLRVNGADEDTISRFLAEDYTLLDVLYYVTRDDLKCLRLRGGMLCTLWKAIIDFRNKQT

[5] = molecular target: Calcium/calmodulin-dependent protein kinase type II subunit delta (Homo sapiens) (UniProt Q13557); conditions: Compound concentration 1000.0 nM
[6] = molecular target: Cyclin-dependent kinase 4 (Homo sapiens) (UniProt P11802); conditions: Compound concentration 1000.0 nM
Sequence of Cyclin-dependent kinase 4 (Homo sapiens) (P11802 whole entry): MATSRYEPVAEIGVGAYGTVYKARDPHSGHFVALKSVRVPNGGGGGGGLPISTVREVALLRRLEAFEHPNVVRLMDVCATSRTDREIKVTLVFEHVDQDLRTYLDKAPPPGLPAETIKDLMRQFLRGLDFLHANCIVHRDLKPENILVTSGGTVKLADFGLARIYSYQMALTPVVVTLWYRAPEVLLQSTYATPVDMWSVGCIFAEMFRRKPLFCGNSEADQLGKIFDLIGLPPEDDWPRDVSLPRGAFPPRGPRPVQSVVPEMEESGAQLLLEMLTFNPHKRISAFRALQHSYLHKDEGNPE

[7] = molecular target: Cyclin-dependent kinase 9 (Homo sapiens) (UniProt P50750); conditions: Compound concentration 1000.0 nM
[8] = molecular target: Casein kinase II subunit alpha (Homo sapiens) (UniProt P68400); conditions: Compound concentration 1000.0 nM
[9] = molecular target: Death-associated protein kinase 2 (Homo sapiens) (UniProt Q9UIK4); conditions: Compound concentration 1000.0 nM
Sequence of Death-associated protein kinase 2 (Homo sapiens) (Q9UIK4 whole entry, looked up): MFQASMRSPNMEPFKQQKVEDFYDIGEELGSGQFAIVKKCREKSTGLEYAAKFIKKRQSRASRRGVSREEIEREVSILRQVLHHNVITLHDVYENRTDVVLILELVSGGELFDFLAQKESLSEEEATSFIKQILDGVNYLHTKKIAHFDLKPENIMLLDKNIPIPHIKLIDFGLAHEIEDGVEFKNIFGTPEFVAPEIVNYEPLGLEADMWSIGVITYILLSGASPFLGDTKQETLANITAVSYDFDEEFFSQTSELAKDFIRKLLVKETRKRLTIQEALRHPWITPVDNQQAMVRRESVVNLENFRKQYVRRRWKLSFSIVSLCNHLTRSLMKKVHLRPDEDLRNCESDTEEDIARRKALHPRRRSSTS

[10] = molecular target: Ephrin type-B receptor 2 (Homo sapiens) (UniProt P29323); conditions: Compound concentration 1000.0 nM
[11] = molecular target: Mitogen-activated protein kinase 6 (Homo sapiens) (UniProt Q16659); conditions: Compound concentration 1000.0 nM
[12] = system: Receptor-type tyrosine-protein kinase FLT3 (Homo sapiens), P36888 [D835Y]; conditions: Compound concentration 1000.0 nM
[13] = system: Receptor-type tyrosine-protein kinase FLT3 (Homo sapiens), P36888 [UNDEFINED MUTATION]; conditions: Compound concentration 1000.0 nM
[14] = molecular target: Tyrosine-protein kinase Fyn (Homo sapiens) (UniProt P06241); conditions: Compound concentration 1000.0 nM
[15] = molecular target: G protein-coupled receptor kinase 4 (Homo sapiens) (UniProt P32298); conditions: Compound concentration 1000.0 nM
[16] = molecular target: Serine/threonine-protein kinase ICK (Homo sapiens) (UniProt Q9UPZ9); conditions: Compound concentration 1000.0 nM
[17] = molecular target: Insulin-like growth factor 1 receptor (Homo sapiens) (UniProt P08069); conditions: Compound concentration 1000.0 nM
Sequence of Insulin-like growth factor 1 receptor (Homo sapiens) (P08069 31-736 limits assumed): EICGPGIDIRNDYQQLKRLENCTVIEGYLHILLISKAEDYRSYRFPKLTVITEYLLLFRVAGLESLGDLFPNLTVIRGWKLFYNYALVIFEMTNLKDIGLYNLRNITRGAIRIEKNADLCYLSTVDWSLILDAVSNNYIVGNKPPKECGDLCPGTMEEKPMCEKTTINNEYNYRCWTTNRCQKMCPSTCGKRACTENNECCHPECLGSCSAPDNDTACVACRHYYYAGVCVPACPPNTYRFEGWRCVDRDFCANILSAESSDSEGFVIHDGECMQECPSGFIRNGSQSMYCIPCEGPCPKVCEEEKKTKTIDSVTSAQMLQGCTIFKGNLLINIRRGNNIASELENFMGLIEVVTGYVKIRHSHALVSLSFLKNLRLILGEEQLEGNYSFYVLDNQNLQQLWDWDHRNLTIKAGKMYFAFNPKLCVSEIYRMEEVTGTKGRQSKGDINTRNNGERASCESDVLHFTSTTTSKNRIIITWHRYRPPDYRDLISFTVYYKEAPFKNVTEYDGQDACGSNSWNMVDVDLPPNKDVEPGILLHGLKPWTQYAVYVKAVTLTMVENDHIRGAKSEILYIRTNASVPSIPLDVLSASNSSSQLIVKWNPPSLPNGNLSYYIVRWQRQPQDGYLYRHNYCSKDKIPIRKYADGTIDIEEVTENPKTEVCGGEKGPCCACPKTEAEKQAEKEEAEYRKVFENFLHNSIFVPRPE
Sequence of Insulin-like growth factor 1 receptor (Homo sapiens) (P08069 741-1367 limits assumed): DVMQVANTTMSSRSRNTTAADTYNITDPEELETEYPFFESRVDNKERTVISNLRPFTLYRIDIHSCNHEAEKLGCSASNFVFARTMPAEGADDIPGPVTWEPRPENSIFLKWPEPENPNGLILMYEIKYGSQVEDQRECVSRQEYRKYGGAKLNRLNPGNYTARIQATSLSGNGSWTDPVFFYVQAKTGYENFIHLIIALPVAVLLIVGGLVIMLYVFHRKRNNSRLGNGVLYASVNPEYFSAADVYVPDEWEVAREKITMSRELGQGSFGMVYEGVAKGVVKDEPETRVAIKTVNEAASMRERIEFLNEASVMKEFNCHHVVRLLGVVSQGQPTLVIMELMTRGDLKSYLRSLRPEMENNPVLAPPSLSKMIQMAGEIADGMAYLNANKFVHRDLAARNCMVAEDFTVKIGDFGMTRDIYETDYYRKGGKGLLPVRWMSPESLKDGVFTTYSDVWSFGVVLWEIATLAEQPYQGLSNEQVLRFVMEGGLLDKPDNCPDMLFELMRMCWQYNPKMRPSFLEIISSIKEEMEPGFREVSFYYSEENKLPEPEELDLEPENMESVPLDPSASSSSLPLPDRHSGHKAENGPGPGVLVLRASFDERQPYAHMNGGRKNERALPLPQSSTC

[18] = molecular target: Mast/stem cell growth factor receptor Kit (Homo sapiens) (UniProt P10721); conditions: Compound concentration 1000.0 nM
[19] = molecular target: Tyrosine-protein kinase Lck (Homo sapiens) (UniProt P06239); conditions: Compound concentration 1000.0 nM
[20] = molecular target: Mitogen-activated protein kinase kinase kinase 4 (Homo sapiens) (UniProt Q9Y6R4); conditions: Compound concentration 1000.0 nM
[21] = molecular target: Serine/threonine-protein kinase MRCK beta (Homo sapiens) (UniProt Q9Y5S2); conditions: Compound concentration 1000.0 nM
Sequence of Serine/threonine-protein kinase MRCK beta (Homo sapiens) (Q9Y5S2 whole entry): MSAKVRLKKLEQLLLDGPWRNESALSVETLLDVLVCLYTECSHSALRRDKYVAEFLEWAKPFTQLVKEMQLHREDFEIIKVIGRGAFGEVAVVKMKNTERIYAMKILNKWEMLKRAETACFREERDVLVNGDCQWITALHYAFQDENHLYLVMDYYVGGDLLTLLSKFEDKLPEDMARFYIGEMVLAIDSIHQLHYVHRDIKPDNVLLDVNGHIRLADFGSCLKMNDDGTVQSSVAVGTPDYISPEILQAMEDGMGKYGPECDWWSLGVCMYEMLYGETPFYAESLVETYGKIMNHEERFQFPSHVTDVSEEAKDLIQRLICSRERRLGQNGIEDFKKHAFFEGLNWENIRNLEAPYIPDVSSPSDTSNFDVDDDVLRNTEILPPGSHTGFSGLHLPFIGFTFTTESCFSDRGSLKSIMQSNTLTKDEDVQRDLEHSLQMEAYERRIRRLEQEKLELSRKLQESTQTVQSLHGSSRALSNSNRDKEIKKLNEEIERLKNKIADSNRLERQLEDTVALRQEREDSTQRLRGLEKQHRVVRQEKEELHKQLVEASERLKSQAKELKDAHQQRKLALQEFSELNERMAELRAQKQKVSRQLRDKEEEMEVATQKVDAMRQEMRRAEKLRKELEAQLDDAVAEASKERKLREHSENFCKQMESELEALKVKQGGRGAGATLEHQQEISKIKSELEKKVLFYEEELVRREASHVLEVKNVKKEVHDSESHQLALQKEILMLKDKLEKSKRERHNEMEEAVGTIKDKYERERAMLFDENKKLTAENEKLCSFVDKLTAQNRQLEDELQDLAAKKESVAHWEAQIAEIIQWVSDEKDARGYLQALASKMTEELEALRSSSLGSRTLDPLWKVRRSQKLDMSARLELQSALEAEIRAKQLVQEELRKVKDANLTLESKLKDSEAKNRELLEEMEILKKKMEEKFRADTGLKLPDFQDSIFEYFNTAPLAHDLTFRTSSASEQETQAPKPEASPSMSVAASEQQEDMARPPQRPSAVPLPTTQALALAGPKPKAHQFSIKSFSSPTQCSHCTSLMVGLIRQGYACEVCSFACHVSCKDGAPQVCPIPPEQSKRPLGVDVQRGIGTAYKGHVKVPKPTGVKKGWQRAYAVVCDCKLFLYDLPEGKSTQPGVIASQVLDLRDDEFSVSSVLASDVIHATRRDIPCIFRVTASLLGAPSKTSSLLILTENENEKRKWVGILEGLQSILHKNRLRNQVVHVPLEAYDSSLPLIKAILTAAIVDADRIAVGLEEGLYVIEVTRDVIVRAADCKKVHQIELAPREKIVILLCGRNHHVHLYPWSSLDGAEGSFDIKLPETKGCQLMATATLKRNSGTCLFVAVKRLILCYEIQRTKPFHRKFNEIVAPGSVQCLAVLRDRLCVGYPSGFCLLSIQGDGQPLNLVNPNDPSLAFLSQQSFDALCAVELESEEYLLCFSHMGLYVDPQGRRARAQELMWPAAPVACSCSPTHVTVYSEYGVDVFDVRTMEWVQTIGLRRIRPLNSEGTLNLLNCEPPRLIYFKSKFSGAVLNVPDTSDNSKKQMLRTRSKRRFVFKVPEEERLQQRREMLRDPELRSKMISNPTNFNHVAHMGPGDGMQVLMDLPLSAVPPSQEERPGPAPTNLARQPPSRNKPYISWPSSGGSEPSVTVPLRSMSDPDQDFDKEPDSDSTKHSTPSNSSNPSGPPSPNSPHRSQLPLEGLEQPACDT

[22] = molecular target: Myosin light chain kinase, smooth muscle (Homo sapiens) (UniProt Q15746); conditions: Compound concentration 1000.0 nM
[23] = molecular target: Mitogen-activated protein kinase 14 (Homo sapiens, UniProt Q16539); conditions: Compound concentration 1000.0 nM
[24] = molecular target: Phosphatidylinositol 4,5-bisphosphate 3-kinase catalytic subunit alpha isoform (Homo sapiens) (UniProt P42336); conditions: Compound concentration 1000.0 nM
[25] = system: Phosphatidylinositol 4,5-bisphosphate 3-kinase catalytic subunit alpha isoform (Homo sapiens), P42336 [Q546K]; conditions: Compound concentration 1000.0 nM
[26] = molecular target: Serine/threonine-protein kinase RIO2 (Homo sapiens) (UniProt Q9BVS4); conditions: Compound concentration 1000.0 nM
[27] = molecular target: Serine/threonine-protein kinase Sgk3 (Homo sapiens) (UniProt Q96BR1); conditions: Compound concentration 1000.0 nM
[28] = molecular target: BDNF/NT-3 growth factors receptor (Homo sapiens) (UniProt Q16620); conditions: Compound concentration 1000.0 nM
[29] = molecular target: T1, 5-hydroxytryptamine receptor 1A (Homo sapiens) (UniProt P08908); conditions: Compound concentration 10.0 uM
T1 sequence (whole entry): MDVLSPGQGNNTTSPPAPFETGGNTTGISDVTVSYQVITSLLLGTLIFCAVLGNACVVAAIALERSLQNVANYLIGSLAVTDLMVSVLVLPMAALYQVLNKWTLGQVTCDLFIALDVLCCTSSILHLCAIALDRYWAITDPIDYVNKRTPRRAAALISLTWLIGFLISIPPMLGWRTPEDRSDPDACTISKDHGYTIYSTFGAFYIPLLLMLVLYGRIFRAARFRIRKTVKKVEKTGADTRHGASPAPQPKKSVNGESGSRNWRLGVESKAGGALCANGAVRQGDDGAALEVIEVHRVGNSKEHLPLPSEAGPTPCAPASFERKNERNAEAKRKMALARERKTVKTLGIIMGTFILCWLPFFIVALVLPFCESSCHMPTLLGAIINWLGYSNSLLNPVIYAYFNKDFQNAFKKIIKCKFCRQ

[30] = molecular target: Sodium-dependent noradrenaline transporter (Homo sapiens, UniProt P23975); conditions: Compound concentration 10.0 uM
[31] = molecular target: Muscarinic acetylcholine receptor M3 (Homo sapiens) (UniProt P20309); conditions: Compound concentration 10.0 uM
[32] = molecular target: T2, Muscarinic acetylcholine receptor M5 (Homo sapiens) (UniProt P08912); conditions: Compound concentration 10.0 uM
T2 sequence (whole entry): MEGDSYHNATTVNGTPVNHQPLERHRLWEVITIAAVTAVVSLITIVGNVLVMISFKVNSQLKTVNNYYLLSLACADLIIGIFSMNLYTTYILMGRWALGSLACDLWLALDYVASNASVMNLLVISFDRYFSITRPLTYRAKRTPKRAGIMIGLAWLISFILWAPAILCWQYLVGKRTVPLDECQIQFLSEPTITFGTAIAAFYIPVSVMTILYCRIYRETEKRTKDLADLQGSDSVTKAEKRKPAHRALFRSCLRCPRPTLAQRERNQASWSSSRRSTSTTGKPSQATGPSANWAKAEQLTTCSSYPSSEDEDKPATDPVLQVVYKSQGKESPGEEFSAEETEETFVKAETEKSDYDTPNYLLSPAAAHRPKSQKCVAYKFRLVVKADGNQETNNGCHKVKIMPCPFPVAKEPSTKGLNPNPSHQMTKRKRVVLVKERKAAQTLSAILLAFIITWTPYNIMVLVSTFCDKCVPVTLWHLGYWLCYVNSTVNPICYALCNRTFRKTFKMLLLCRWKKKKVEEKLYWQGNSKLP

Cc1c(C(=O)O)cc(-c2ccc(C3CCNCC3)cc2)c2ccc(-c3ccc(C(F)(F)F)cc3)cc12 [PPTN-NC]
inactive: residual activity [1] 85% | residual activity [2] 100% | residual activity [3] 100% | residual activity [4] 100% | residual activity [5] 100% | residual activity [6] 100% | residual activity [7] 100% | residual activity [8] 100% | residual activity [9] 100% | residual activity [10] 92% | residual activity [11] 100% | residual activity [12] 100% | residual activity [13] 95% | residual activity [14] 100% | residual activity [15] 100% | residual activity [16] 100% | residual activity [17] 90% | residual activity [18] 100% | residual activity [19] 100% | residual activity [20] 100% | residual activity [21] 100% | residual activity [22] 82% | residual activity [23] 100% | residual activity [24] 100% | residual activity [25] 100% | residual activity [26] 100% | residual activity [27] 100% | residual activity [28] 100% | inhibition [29] 1.01% | inhibition [30] 11.2% | inhibition [31] 0.06% | inhibition [32] 10.1%

O=C(O)c1cc(-c2ccc(C3CCNCC3)cc2)c2ccc(-c3ccc(C(F)(F)F)cc3)cc2c1 [PPTN]
inactive: residual activity [1] 100% | residual activity [2] 90% | residual activity [3] 95% | residual activity [4] 100% | residual activity [5] 100% | residual activity [6] 100% | residual activity [7] 100% | residual activity [8] 100% | residual activity [9] 100% | residual activity [10] 100% | residual activity [11] 100% | residual activity [12] 100% | residual activity [13] 100% | residual activity [14] 100% | residual activity [15] 72% | residual activity [16] 100% | residual activity [17] 95% | residual activity [18] 100% | residual activity [19] 100% | residual activity [20] 100% | residual activity [21] 100% | residual activity [22] 85% | residual activity [23] 100% | residual activity [24] 100% | residual activity [25] 100% | residual activity [26] 100% | residual activity [27] 100% | residual activity [28] 100% | inhibition [29] 11.2% | inhibition [30] 23.6% | inhibition [31] 9.47% | inhibition [32] 10.1%

— ChEMBL document CHEMBL4507292 (2021)
